Reference: patent publication US12180518B2, “RNA polymerase variants for co-transcriptional capping” (priority 2019, dated 2024)

Legend:
Type in all cases: biochemical, bacteriophage T7
[1] = molecular target: T7 RNA polymerase variant G47A/D506W+C-terminal G (D506W), SEQ ID NO: 57 (Escherichia phage T7, UniProt P00573, D506W/G47A); experiment: GAG/e6A/m6A cap analog incorporation in IVT reactions, LC-MS % capped RNA (D506W); conditions: 5 mM of each NTP
Protocol: (§1) In vitro transcription reactions were performed using DNA template, one of three cap analogs (GAG cap, m6A cap, and e6A cap) at varying concentrations, and (1) a G47A+C-terminal G RNA polymerase variant (control polymerase variant; G47A+C-terminal G), (2) a G47A/D506W+C-terminal G RNA polymerase variant (D506W), (3) a G47A/S628W+C-terminal G RNA polymerase variant (S628W), (4) a G47A/D653W+C-terminal G RNA polymerase variant (D653W), and (5) a G47A/P657W+C-terminal G RNA polymerase variant (P657W). IVT reactions using the m6A and e6A cap analogs were incorporated using a DNA template that encodes for a 5′A followed by G. Following the IVT reactions, each experiment was subjected to LC-MS to determine the % capped RNA (i.e., percent of transcribed RNA comprising a cap).
(§2) Conversely, even at 5 mM e6A, the control variant provided ˜40% of total RNA with incorporated e6A.
(§3) Conversely, even at 5 mM m6A, the control variant provided less than 30% of total RNA with incorporated m6A.

[2] = molecular target: T7 RNA polymerase variant G47A/S628W+C-terminal G (S628W), SEQ ID NO: 58 (Escherichia phage T7, UniProt P00573, G47A/S628W); experiment: GAG/e6A/m6A cap analog incorporation in IVT reactions, LC-MS % capped RNA (S628W); conditions: 5 mM of each NTP
Protocol: as §1, §2, §3

[3] = molecular target: T7 RNA polymerase variant G47A/P657W+C-terminal G (P657W), SEQ ID NO: 60 (Escherichia phage T7, UniProt P00573, G47A/P657W); experiment: GAG/e6A/m6A cap analog incorporation in IVT reactions, LC-MS % capped RNA (P657W); conditions: 5 mM of each NTP
Protocol: as §1, §2, §3

[4] = molecular target: T7 RNA polymerase variant G47A/D653W+C-terminal G (D653W), SEQ ID NO: 59 (Escherichia phage T7, UniProt P00573, D653W/G47A); experiment: GAG/e6A/m6A/GGAG cap analog incorporation in IVT reactions, LC-MS % capped RNA (D653W)
Protocol: as §1, §2, §3
Conversely, even at 7.5 mM GGAG tetranuc, the control variant provided less than 70% of total RNA with incorporated GGAG.

[5] = EC50 = concentration for 50% cap incorporation, vs G47A+C-terminal G

T7 RNA polymerase variant G47A/D506W+C-terminal G (D506W), SEQ ID NO: 57, sequence (P00573 other isoform, or with tags, fused parts or gaps G47A/D506W): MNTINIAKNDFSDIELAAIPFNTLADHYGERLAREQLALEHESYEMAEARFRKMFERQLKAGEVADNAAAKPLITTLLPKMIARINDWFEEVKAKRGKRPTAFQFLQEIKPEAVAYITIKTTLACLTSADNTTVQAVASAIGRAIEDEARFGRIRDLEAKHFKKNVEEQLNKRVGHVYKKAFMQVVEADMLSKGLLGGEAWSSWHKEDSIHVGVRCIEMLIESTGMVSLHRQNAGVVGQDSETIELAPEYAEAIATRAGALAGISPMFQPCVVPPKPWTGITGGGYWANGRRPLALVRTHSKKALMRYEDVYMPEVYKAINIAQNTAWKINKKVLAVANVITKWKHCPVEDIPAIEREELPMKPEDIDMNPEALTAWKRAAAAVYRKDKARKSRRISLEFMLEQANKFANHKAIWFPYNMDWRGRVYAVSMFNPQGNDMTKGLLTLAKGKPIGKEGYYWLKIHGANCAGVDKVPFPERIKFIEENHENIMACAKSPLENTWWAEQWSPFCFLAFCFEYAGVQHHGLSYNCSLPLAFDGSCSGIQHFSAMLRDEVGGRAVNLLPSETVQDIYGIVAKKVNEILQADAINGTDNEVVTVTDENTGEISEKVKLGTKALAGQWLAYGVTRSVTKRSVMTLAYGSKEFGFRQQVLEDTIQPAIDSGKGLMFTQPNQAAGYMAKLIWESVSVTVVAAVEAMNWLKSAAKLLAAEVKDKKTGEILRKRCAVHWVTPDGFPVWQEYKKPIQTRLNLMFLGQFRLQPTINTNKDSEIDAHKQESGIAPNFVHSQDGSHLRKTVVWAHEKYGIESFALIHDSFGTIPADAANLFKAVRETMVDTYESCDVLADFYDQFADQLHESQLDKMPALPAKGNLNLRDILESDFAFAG
T7 RNA polymerase variant G47A/D653W+C-terminal G (D653W), SEQ ID NO: 59, sequence (P00573 other isoform, or with tags, fused parts or gaps G47A/D653W): as the sequence (P00573 other isoform, or with tags, fused parts or gaps G47A/D506W) above, with W506D, D653W counted along it
T7 RNA polymerase variant G47A/P657W+C-terminal G (P657W), SEQ ID NO: 60, sequence (P00573 other isoform, or with tags, fused parts or gaps G47A/P657W): as the sequence (P00573 other isoform, or with tags, fused parts or gaps G47A/D506W) above, with W506D, P657W counted along it
T7 RNA polymerase variant G47A/S628W+C-terminal G (S628W), SEQ ID NO: 58, sequence (P00573 other isoform, or with tags, fused parts or gaps G47A/S628W): as the sequence (P00573 other isoform, or with tags, fused parts or gaps G47A/D506W) above, with W506D, S628W counted along it

For `CO[C@@H]1[C@H](OP(=O)(O)OC[C@H]2O[C@@H](n3cnc4c(=O)[nH]c(N)nc43)[C@H](O)[C@@H]2O)[C@@H](COP(=O)(O)OP(=O)(O)OP(=O)([O-])OC[C@H]2O[C@@H](n3c[n+](C)c4c(=O)[nH]c(N)nc43)[C@H](O)[C@@H]2O)O[C@H]1n1cnc2c(N)ncnc21` [GAG cap], the “fold improvement (reduction) in EC50 for GAG cap incorporation, relative to the control variant” value [1, 5] was 1.28 fold, the “fold improvement (reduction) in EC50 for GAG cap incorporation, relative to the control variant” value [2, 5] was 1.45 fold and the “fold improvement (reduction) in EC50 for GAG cap incorporation, relative to the control variant” value [3, 5] was 2.27 fold. For the same compound, the “EC50 for GAG cap incorporation, relative to the control variant (in words)” value ([4]; 5 mM of each NTP, vs G47A+C-terminal G) was “significant improvement” and the “fold improvement (reduction) in EC50 for GAG cap incorporation, relative to the control variant” value ([4]; 7.5 mM of each NTP, FIG. 4E, vs G47A+C-terminal G) was 12.3 fold.

With `CO[C@@H]1[C@H](OP(=O)(O)OC[C@H]2O[C@@H](n3cnc4c(N)ncnc43)[C@H](O)[C@@H]2OP(=O)(O)OC[C@H]2O[C@@H](n3cnc4c(=O)[nH]c(N)nc43)[C@H](O)[C@@H]2O)[C@@H](COP(=O)(O)OP(=O)(O)OP(=O)([O-])OC[C@H]2O[C@@H](n3c[n+](C)c4c(=O)[nH]c(N)nc43)[C@H](O)[C@@H]2O)O[C@H]1n1cnc2c(=O)[nH]c(N)nc21` [GGAG tetranuc] the “effective concentration of GGAG tetranuc cap analog for cap incorporation, relative to control variant (in words)” value ([4]; 7.5 mM of each NTP, FIG. 7) was “lesser effective concentrations”.

In the case of `CCNc1ncnc2c1ncn2[C@@H]1O[C@H](COP(=O)(O)OP(=O)(O)OP(=O)([O-])OC[C@H]2O[C@@H](n3c[n+](C)c4c(=O)[nH]c(N)nc43)[C@H](O)[C@@H]2O)[C@@H](OP(=O)(O)OC[C@H]2O[C@@H](n3cnc4c(=O)[nH]c(N)nc43)[C@H](O)[C@@H]2O)[C@H]1OC` [e6A cap, m^7Gpppe^6A2′OmepG], the “effective concentration of e6A cap analog for cap incorporation, relative to control variant (in words)” value ([1]; FIGS. 5A-5D) is reported as “lesser effective concentrations”, the “effective concentration of e6A cap analog for cap incorporation, relative to control variant (in words)” value ([2]; FIGS. 5A-5D) is reported as “lesser effective concentrations” and the “effective concentration of e6A cap analog for cap incorporation, relative to control variant (in words)” value ([3]; FIGS. 5A-5D) is reported as “lesser effective concentrations”. The “effective concentration of e6A cap analog for cap incorporation, relative to control variant (in words)” value ([4]; 5 mM of each NTP, FIGS. 5A-5D) was “lesser effective concentrations”.

`CNc1ncnc2c1ncn2[C@@H]1O[C@H](COP(=O)(O)OP(=O)(O)OP(=O)([O-])OC[C@H]2O[C@@H](n3c[n+](C)c4c(=O)[nH]c(N)nc43)[C@H](O)[C@@H]2O)[C@@H](OP(=O)(O)OC[C@H]2O[C@@H](n3cnc4c(=O)[nH]c(N)nc43)[C@H](O)[C@@H]2O)[C@H]1OC` [m6A cap, m^7Gpppm^6A2′OmepG] was tested, and the “effective concentration of m6A cap analog for cap incorporation, relative to control variant (in words)” value ([1]; FIGS. 6A-6D) was “lesser effective concentrations”, the “effective concentration of m6A cap analog for cap incorporation, relative to control variant (in words)” value ([2]; FIGS. 6A-6D) was “lesser effective concentrations” and the “effective concentration of m6A cap analog for cap incorporation, relative to control variant (in words)” value ([3]; FIGS. 6A-6D) was “lesser effective concentrations”. The “effective concentration of m6A cap analog for cap incorporation, relative to control variant (in words)” value ([4]; 5 mM of each NTP, FIGS. 6A-6D) was “lesser effective concentrations”.
